Assay results: US4153729A, “Therapeutically useful cysteinol and homocysteinol derivatives” (Recherches Pharmaceutiques et Scientifiques, priority 1977, dated 1979)
Structures can show the parent of a compound that is named as a salt.

What was measured:
[1] = Solubility of the isolated product; assay type: physicochemical; conditions: in words
[2] = Oral LD 50 determined according to the method of Karber and Behrens on mice; conditions: mouse, in vivo, female mice 24 to 26 g, read-out: LD 50 per os
Procedure: The products of the invention are hardly toxic.
The oral LD 50 (see the table below) was determined according to the method of Karber and Behrens (Arch. Exp. Pathol. Pharm. 177, 1935, page 379) on mice EVIC CEBA .female. Swiss EOPS NMRI Han of 24 to 26 g weight.

[3] = tested on: rats; assay: Hypolipemic activity: hyperlipidemia experimentally induced by Triton in rats; assay type: in vivo; design: key: NS: non-significant result; conditions: 18 h after i.v. Triton; for Hypolipemic activity, percentages of diminution: Cholesterol / Hypolipemic activity, percentages of diminution: Triglycerides / Hypolipemic activity, percentages of diminution: total lipids / Hypolipemic activity, percentages of diminution: β-lipoprotein: single p.o. dose mg/kg: clofibrate 225, Ex 1, 2: 500, Ex 3: 270, Ex 4: 127, Ex 5: 175, Ex 6: 310, Ex 12: 250, Ex 13: 140, Ex 14: 95; for Hypolipemic activity, percentages of diminution: optical serum density: serum at 691 nanometres, single p.o. dose mg/kg: Ex 1, 2: 500, Ex 3: 270, Ex 4: 127, Ex 5: 175, Ex 6: 310, Ex 12: 250, Ex 13: 140, Ex 14: 95
Procedure: The technique used to show these properties has been described by M. Friedman and S. E. Byers in : J. Exptl. Med. 97, 117, 1953 and likewise by S. Garattini and colleagues in Arzneim. Forsch. 9, 206, 1959.
The rats received intravenously 0.3 ml per 100 grams of body weight of a solution of Triton 13 39 at 10%. The products to be tested are administered simultaneously orally at a dose corresponding to a tenth of their LD 50, determined orally in mice, without the dose used exceeding 500 mg/kg.
Eighteen hours after the injection of Triton the animals are sacrificed by section of the carotid and the blood is collected to determined the lipid parameters : cholesterol (auto-analyser Technicon AA II Lieberman Burchard), beta- lipoproteins, (Burnstein), total lipids (Chabrol and Charonnat), triglycerides (Boehringer enzymatic).
The optical density of the serum at 691 nanometres is measured in each case. Each product was tested on ten animals. The statistic calculations were carried out on the averages affected by their divergence from the average using the Student test.
The reference compound used is clofibrate.

| SMILES | solubility [1] | LD50 [2] [mg/kg] | Hypolipemic activity, percentages of diminution: Cholesterol [3] | Hypolipemic activity, percentages of diminution: Triglycerides [3] | Hypolipemic activity, percentages of diminution: total lipids [3] | Hypolipemic activity, percentages of diminution: optical serum density [3] | Hypolipemic activity, percentages of diminution: β-lipoprotein [3] |
| --- | --- | --- | --- | --- | --- | --- | --- |
| NC(CO)CCSCCCCCSCCC(N)CO (centres unmarked) [Example 11, mandelate of 2,14-diamino-5,11-dithia-1,15-pentadecanediol] | Soluble in water, alcohols, DMF |  |  |  |  |  |  |
| NC(CO)CCSCCCCSCCC(N)CO (centres unmarked) [Example 10, mandelate of 2,13-diamino-5,10-dithia-1,14-tetradecanediol] | soluble in water, alcohols and dimethylformamide |  |  |  |  |  |  |
| NC(CO)CCSCCCCCCSCCC(N)CO (centres unmarked) [Example 12, 2,15-diamino-5,12-dithia-1,16-hexadecanediol] | soluble in water and alcohols | 2500 | NS | NS | NS | NS |  |
| NC(CO)CSSCC(N)CO (centres unmarked) [Example 6, 2,7-diamino-4,5-dithia-1,8-octanediol] | soluble in water, methanol, ethanol | 3100 |  |  |  |  |  |
| NC(CO)CSCCCCCCCCSCC(N)CO (centres unmarked) [Example 4, 2,15-diamino-4,13-dithia-1,16-hexadecanediol] | soluble in water, alcohols, ether | 1280 |  |  | NS |  |  |
| CCOC(=O)C(C)(C)Oc1ccc(Cl)cc1 [Clofibrate, reference compound] |  | 2300 |  |  |  |  |  |
| NC(CO)CCSCCCCCCCCCCSCCC(N)CO (centres unmarked) [Example 14, 2,19-diamino-5,16-dithia-1,20-eicosanediol] | soluble in water and alcohols | 950 | NS | NS | NS | NS |  |
| NC(CO)CSCCCCCCCCCCSCC(N)CO (centres unmarked) [Example 5, 2,17-diamino-4,15-dithia-1,18-octadecanediol] |  | 1750 |  |  | NS |  | NS |
| NC(CO)CCSCCSCCC(N)CO (centres unmarked) [Example 9, neutral oxalate of 2,11-diamino-5,8-dithia-1,12 dodecanediol] | soluble in water and alcohols |  |  |  |  |  |  |
| NC(CO)CSCSCC(N)CO (centres unmarked) [Example 1, 2,8-diamino-4,6-dithia-1,9-nonanediol] | soluble in the cold in water, alcohol, ether | > 5000 |  | NS | NS | NS | NS |
| NC(CO)CSCCCCCCSCC(N)CO (centres unmarked) [Example 3, 2,13-diamino-4,11-dithia-1,14-tetradecanediol] | soluble in water, alcohols, ether | 2700 |  |  |  |  |  |
| NC(CO)CSCCCCSCC(N)CO (centres unmarked) [Example 2, 2,11-diamino-4,9-dithia-1,12-dodecanediol] | soluble in water, alcohols, ether | 5000 | NS |  | NS | NS | NS |
| NC(CO)CCSCCCCCCCCSCCC(N)CO (centres unmarked) [Example 13, 2,17-diamino-5,14-dithia-1,18-octadecanediol] | soluble in water and alcohols | 1400 |  |  |  |  |  |
| NC(CO)CCSCSCCC(N)CO (centres unmarked) [Example 8, neutral oxalate of 2,10-diamino-5,7-dithia-1,11 undecanediol] | Soluble in water and alcohols |  |  |  |  |  |  |
